# pEC50: −log10 of the molar value.
# Target: GLP-1 Receptor (Homo sapiens, UniProt P43220)
# Experiment: GLP-1R agonist cAMP stimulation assay (HEK293/GLP1R/CRE-LUC cells, cAMP dynamic 2 Kit)
# Format: cell-based
# Conditions: HEK293/CRE-Luc cell line stably expressing the GLP-1 Receptor, 30 min at 37° C.
# Outline: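 HEK293 cells stably expressing human GLP-1R with CRE-luciferase, 1000 cells/well in DPBS with 0.5 mM IBMX and 0.1% BSA, treated with compound in 1/2-log serial dilution for 30 min at 37 °C. cAMP then detected by HTRF (cAMP-d2 plus anti-cAMP cryptate), 1 h at room temperature in the dark.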
# Chain of GLP-1 Receptor (P43220 24-463, species assumed): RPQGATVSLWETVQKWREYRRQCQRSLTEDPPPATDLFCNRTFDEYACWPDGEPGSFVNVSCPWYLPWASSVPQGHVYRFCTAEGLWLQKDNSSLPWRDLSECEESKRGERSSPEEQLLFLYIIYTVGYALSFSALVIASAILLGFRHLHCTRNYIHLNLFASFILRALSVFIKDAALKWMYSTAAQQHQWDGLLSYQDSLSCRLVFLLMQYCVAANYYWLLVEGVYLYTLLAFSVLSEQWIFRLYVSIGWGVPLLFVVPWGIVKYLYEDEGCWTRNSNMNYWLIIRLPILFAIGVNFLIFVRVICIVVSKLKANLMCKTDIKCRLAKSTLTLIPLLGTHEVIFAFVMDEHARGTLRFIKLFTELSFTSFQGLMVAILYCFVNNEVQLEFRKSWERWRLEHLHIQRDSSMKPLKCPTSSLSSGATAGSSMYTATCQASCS
row,Compound,pEC50
1,"C[C@]1(c2ccc(Cl)cc2F)Oc2cccc(C3CCN(Cc4nc5cc(-c6nnc(C#N)[nH]6)nnc5n4C[C@@H]4CCO4)CC3)c2O1 [Compound 448a, 5-[6-({4-[(2S)-2-(4-chloro-2-fluorophenyl)-2-methyl-2H-1,3-benzodioxol-4-yl]piperidin-1-yl}methyl)-7-{[(2S)-oxetan-2-yl]methyl}-7H-imidazo[4,5-c]pyridazin-3-yl]-4H-1,2,4-triazole-3-carbonitrile]",10.96
2,"CC1(c2ccc(Cl)cn2)Oc2cccc(C3CCN(Cc4nc5cc(-c6nnn[nH]6)ncc5n4C[C@@H]4CCO4)CC3)c2O1 (stereo partly drawn) [Compound 450a, 5-chloro-2-(2-methyl-4-{1-[(3-{[(2S)-oxetan-2-yl]methyl}-6-(1H-1,2,3,4-tetrazol-5-yl)-3H-imidazo[4,5-c]pyridin-2-yl)methyl]piperidin-4-yl}-2H-1,3-benzodioxol-2-yl)pyridine]",10.21
3,"N#Cc1ccc(COc2cccc(N3CCN(Cc4nc5cc(-c6nnc(C(F)(F)F)[nH]6)nnc5n4C[C@@H]4CCO4)CC3)n2)c(F)c1 [Compound 493a, 3-fluoro-4-{[(6-{4-[(7-{[(2S)-oxetan-2-yl]methyl}-3-[5-(trifluoromethyl)-4H-1,2,4-triazol-3-yl]-7H-imidazo[4,5-c]pyridazin-6-yl)methyl]piperazin-1-yl}pyridin-2-yl)oxy]methyl}benzonitrile]",10.36
4,"C[C@]1(c2ccc(Cl)cc2F)Oc2cccc(C3CCN(Cc4nc5cc(-c6nnc(C7CC7)[nH]6)cnc5n4C[C@@H]4CCO4)CC3)c2O1 [Compound 282a, 4-[(2S)-2-(4-chloro-2-fluorophenyl)-2-methyl-2H-1,3-benzodioxol-4-yl]-1-{[6-(5-cyclopropyl-4H-1,2,4-triazol-3-yl)-3-{[(2S)-oxetan-2-yl]methyl}-3H-imidazo[4,5-b]pyridin-2-yl]methyl}piperidine]",9.35
5,"O=C(Nc1ccc2c(c1)nc(CN1CCC(c3cccc(OCc4ccc(Cl)cc4F)n3)CC1)n2C[C@@H]1CCO1)C1CCOCC1 [Compound 153a, N-{2-[(4-{6-[(4-chloro-2-fluorophenyl)methoxy]pyridin-2-yl}piperidin-1-yl)methyl]-1-{[(2S)-oxetan-2-yl]methyl}-1H-1,3-benzodiazol-5-yl}oxane-4-carboxamide]",9.52
6,"C[C@]1(c2ccc(Cl)cc2F)Oc2cccc(C3CCN(Cc4nc5cc(-c6noc(=O)[nH]6)cnc5n4C[C@@H]4CCOC4)CC3)c2O1 [Compound 398a, 3-[2-({4-[(2S)-2-(4-chloro-2-fluorophenyl)-2-methyl-2H-1,3-benzodioxol-4-yl]piperidin-1-yl}methyl)-3-{[(3S)-oxolan-3-yl]methyl}-3H-imidazo[4,5-b]pyridin-6-yl]-4,5-dihydro-1,2,4-oxadiazol-5-one]",8.37
7,"C[C@]1(c2ccc(Cl)cn2)Oc2cccc(C3CCN(Cc4nc5cc(-c6nnc(C#N)[nH]6)nnc5n4C[C@@H]4CCO4)CC3)c2O1 [Compound 482a, 5-[6-({4-[(2S)-2-(5-chloropyridin-2-yl)-2-methyl-2H-1,3-benzodioxol-4-yl]piperidin-1-yl}methyl)-7-{[(2S)-oxetan-2-yl]methyl}-7H-imidazo[4,5-c]pyridazin-3-yl]-4H-1,2,4-triazole-3-carbonitrile]",10.49
8,"COCCn1c(CN2CCC(c3cccc4c3OC(C)(c3ccc(Cl)cc3F)O4)CC2)nc2cc(-c3noc(=O)[nH]3)ccc21 (stereo not shown) [Compound 230a, 3-(2-((4-(2-(4-chloro-2-fluorophenyl)-2-methylbenzo[d][1,3]dioxol-4-yl)piperidin-1-yl)methyl)-1-(2-methoxyethyl)-1H-benzo[d]imidazol-5-yl)-1,2,4-oxadiazol-5(4H)-one]",9.06
9,"Cc1nnc(-c2cc3nc(CN4CCC(c5cccc6c5OC(c5ccc(Cl)cc5F)CO6)CC4)n(C[C@@H]4CCO4)c3cn2)[nH]1 (stereo partly drawn) [Compound 468a, 4-[3-(4-chloro-2-fluorophenyl)-2,3-dihydro-1,4-benzodioxin-5-yl]-1-{[6-(5-methyl-4H-1,2,4-triazol-3-yl)-3-{[(2S)-oxetan-2-yl]methyl}-3H-imidazo[4,5-c]pyridin-2-yl]methyl}piperidine]",9.28
10,"Fc1cc(Cl)ccc1COc1ncccc1C1=CCN(Cc2nc3cc(-c4nnc(C(F)(F)F)[nH]4)ccc3n2C[C@@H]2CCO2)CC1 [Compound 390a, 2-[(4-chloro-2-fluorophenyl)methoxy]-1′-[(1-{[(2S)-oxetan-2-yl]methyl}-5-[5-(trifluoromethyl)-4H-1,2,4-triazol-3-yl]-1H-1,3-benzodiazol-2-yl)methyl]-1′,2′,3′,6′-tetrahydro-3,4′-bipyridine]",9.32
11,"C[C@H]1CN(c2cccc(OCc3ccc(Cl)cc3F)n2)CCN1Cc1nc2cc(-c3nnc(C(F)(F)F)[nH]3)nnc2n1C[C@@H]1CCO1 [Compound 519a, (2S)-4-{6-[(4-chloro-2-fluorophenyl)methoxy]pyridin-2-yl}-2-methyl-1-[(7-{[(2S)-oxetan-2-yl]methyl}-3-[5-(trifluoromethyl)-4H-1,2,4-triazol-3-yl]-7H-imidazo[4,5-c]pyridazin-6-yl)methyl]piperazine]",10.40
12,"O=c1[nH]c(-c2cc3nc(CN4CC=C(c5ccc(F)c(OCc6ccc(Cl)cc6F)c5)CC4)n(C[C@@H]4CCO4)c3cn2)no1 [Compound 299a, 3-{2-[(4-{3-[(4-chloro-2-fluorophenyl)methoxy]-4-fluorophenyl}-1,2,3,6-tetrahydropyridin-1-yl)methyl]-3-{[(2S)-oxetan-2-yl]methyl}-3H-imidazo[4,5-c]pyridin-6-yl}-4,5-dihydro-1,2,4-oxadiazol-5-one]",9.59
13,"O=C(Nc1ccc2c(c1)nc(CN1CCC(c3cccc(OCc4ccc(Cl)cc4F)n3)CC1)n2C[C@@H]1CCO1)C1COC1 [Compound 104a, (S)—N-(2-((4-(6-((4-chloro-2-fluorobenzyl)oxy)pyridin-2-yl)piperidin-1-yl)methyl)-1-(oxetan-2-ylmethyl)-1H-benzo[d]imidazol-5-yl)oxetane-3-carboxamide]",9.68
14,"Fc1cc(Cl)ccc1COc1nc(C2CCN(Cc3nc4cc(-c5nnc(C(F)(F)F)[nH]5)ncc4n3C[C@@H]3CCO3)CC2F)ccc1F (stereo partly drawn) [Compound 515a, 2-[(4-chloro-2-fluorophenyl)methoxy]-3-fluoro-6-[(3,4-trans)-3-fluoro-1-[(3-{[(2S)-oxetan-2-yl]methyl}-6-[5-(trifluoromethyl)-4H-1,2,4-triazol-3-yl]-3H-imidazo[4,5-c]pyridin-2-yl)methyl]piperidin-4-yl]pyridine]",10.24
15,"CC1(C(=O)Nc2ccc3c(c2)nc(CN2CCC(c4cccc(OCc5ccc(Cl)cc5F)n4)CC2)n3C[C@@H]2CCO2)CCCCO1 (stereo partly drawn) [Compound 183a, N-{2-[(4-{6-[(4-chloro-2-fluorophenyl)methoxy]pyridin-2-yl}piperidin-1-yl)methyl]-1-{[(2S)-oxetan-2-yl]methyl}-1H-1,3-benzodiazol-5-yl}-2-methyloxane-2-carboxamide]",8.40
16,"O=C(Nc1ccc2c(c1)nc(CN1CCC(c3cccc(OCc4ccc(Cl)cc4F)n3)CC1)n2C[C@@H]1CCO1)c1ccn2cncc2c1 [Compound 179a, N-{2-[(4-{6-[(4-chloro-2-fluorophenyl)methoxy]pyridin-2-yl}piperidin-1-yl)methyl]-1-{[(2S)-oxetan-2-yl]methyl}-1H-1,3-benzodiazol-5-yl}imidazo[1,5-a]pyridine-7-carboxamide]",9.57
17,"CC1(c2ccc(Cl)cc2F)Oc2cccc(C3CCN(Cc4nc5cc(-c6cn(CCS(C)(=O)=O)nn6)ccc5n4C[C@@H]4CCO4)CC3)c2O1 (stereo partly drawn) [Compound 250a, 2-({4-[2-(4-chloro-2-fluorophenyl)-2-methyl-2H-1,3-benzodioxol-4-yl]piperidin-1-yl}methyl)-5-[1-(2-methanesulfonylethyl)-1H-1,2,3-triazol-4-yl]-1-{[(2S)-oxetan-2-yl]methyl}-1H-1,3-benzodiazole]",9.96
18,"Fc1cc(Cl)ccc1COc1ncccc1C1CCN(Cc2nc3cc(-c4nnc(C(F)(F)F)[nH]4)ccc3n2C[C@@H]2CCO2)CC1 [Compound 393a, 2-[(4-{2-[(4-chloro-2-fluorophenyl)methoxy]pyridin-3-yl}piperidin-1-yl)methyl]-1-{[(2S)-oxetan-2-yl]methyl}-5-[5-(trifluoromethyl)-4H-1,2,4-triazol-3-yl]-1H-1,3-benzodiazole]",10.20
19,"CO[C@H](C)Cn1c(CN2CCC(c3cccc4c3O[C@@](C)(c3ccc(C#N)cc3F)O4)CC2)nc2cc(-c3nnc(C(F)(F)F)[nH]3)ncc21 [Compound 442a, 3-fluoro-4-[(2S)-4-[1-({3-[(2R)-2-methoxypropyl]-6-[5-(trifluoromethyl)-4H-1,2,4-triazol-3-yl]-3H-imidazo[4,5-c]pyridin-2-yl}methyl)piperidin-4-yl]-2-methyl-2H-1,3-benzodioxol-2-yl]benzonitrile]",10.48
20,"CC1(c2ccc(Cl)cc2F)Oc2ccc(F)c(C3CCN(Cc4nc5cc(-c6nnc(C(F)(F)F)[nH]6)ncc5n4C[C@@H]4CCO4)CC3)c2O1 (stereo partly drawn) [Compound 458a, 4-[2-(4-chloro-2-fluorophenyl)-5-fluoro-2-methyl-2H-1,3-benzodioxol-4-yl]-1-[(3-{[(2S)-oxetan-2-yl]methyl}-6-[5-(trifluoromethyl)-4H-1,2,4-triazol-3-yl]-3H-imidazo[4,5-c]pyridin-2-yl)methyl]piperidine]",9.52
21,"O=C(Nc1ccc2c(c1)nc(CN1CCC(c3cccc(OCc4ccc(Cl)cc4F)n3)CC1)n2C[C@@H]1CCO1)C1COCCO1 (stereo partly drawn) [Compound 172a, N-{2-[(4-{6-[(4-chloro-2-fluorophenyl)methoxy]pyridin-2-yl}piperidin-1-yl)methyl]-1-{[(2S)-oxetan-2-yl]methyl}-1H-1,3-benzodiazol-5-yl}-1,4-dioxane-2-carboxamide]",9.51
22,"O=C(Nc1ccc2c(c1)nc(CN1CCC(c3cccc(OCc4ccc(Cl)cc4F)n3)CC1)n2C[C@@H]1CCO1)C1CC(F)(F)C1 [Compound 152a, N-{2-[(4-{6-[(4-chloro-2-fluorophenyl)methoxy]pyridin-2-yl}piperidin-1-yl)methyl]-1-{[(2S)-oxetan-2-yl]methyl}-1H-1,3-benzodiazol-5-yl}-3,3-difluorocyclobutane-1-carboxamide]",9.06

# Source: patent US20230391760A1, “HETEROCYCLIC GLP-1 AGONISTS” (Gasherbrum Bio, Inc., priority 2020, published 2023)
